Data reported in US8124793B2, “Derivatives of ethylene methanedisulfonate as cancer chemotherapeutic agents” (priority 2007, dated 2012).

How the values were obtained:
Type in all cases: cell-based
[1] = tested on: CCRF-CEM; test: NCI screen, growth of human tumor cells: Leukemia CCRF-CEM; conditions: CCRF-CEM (Leukemia), 10^−4 molar
Method in brief: (§1)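 Percent-growth read-out from the NCI cancer cell screen; data annotated by cancer type and molar concentration, ≥60 points per compound.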

[2] = tested on: K562; test: NCI screen, growth of human tumor cells: Leukemia K562; conditions: K562 (Leukemia), 10^−4 molar
Method in brief: as §1

[3] = tested on: MOLT-4; test: NCI screen, growth of human tumor cells: Leukemia MOLT-4; conditions: MOLT-4 (Leukemia), 10^−4 molar
Method in brief: as §1

[4] = tested on: RPMI-8226; test: NCI screen, growth of human tumor cells: Leukemia RPMI-8226; conditions: RPMI-8226 (Leukemia), 10^−4 molar
Method in brief: as §1

[5] = tested on: SR; test: NCI screen, growth of human tumor cells: Leukemia SR; conditions: SR (Leukemia), 10^−4 molar
Method in brief: as §1

[6] = tested on: HOP-62; test: NCI screen, growth of human tumor cells: Non-Small Cell Lung HOP-62; conditions: HOP-62 (Non-Small Cell Lung), 10^−4 molar
Method in brief: as §1

[7] = tested on: HOP-18; test: NCI screen, growth of human tumor cells: Non-Small Cell Lung HOP-18
Method in brief: as §1

[8] = tested on: HOP-92; test: NCI screen, growth of human tumor cells: Non-Small Cell Lung HOP-92
Method in brief: as §1

[9] = tested on: NCI-H460; test: NCI screen, growth of human tumor cells: Non-Small Cell Lung NCI-H460; conditions: NCI-H460 (Non-Small Cell Lung), 10^−4 molar
Method in brief: as §1

[10] = tested on: NCI-H23; test: NCI screen, growth of human tumor cells: Non-Small Cell Lung NCI-H23; conditions: NCI-H23 (Non-Small Cell Lung), 10^−4 molar
Method in brief: as §1

[11] = tested on: HCT-116; test: NCI screen, growth of human tumor cells: Colon Cancer HCT-116; conditions: HCT-116 (Colon Cancer), 10^−4 molar
Method in brief: as §1

[12] = tested on: HCT-15; test: NCI screen, growth of human tumor cells: Colon Cancer HCT-15; conditions: HCT-15 (Colon Cancer), 10^−4 molar
Method in brief: as §1

[13] = tested on: SF-295; test: NCI screen, growth of human tumor cells: CNS Cancer SF-295; conditions: SF-295 (CNS Cancer), 10^−4 molar
Method in brief: as §1

[14] = tested on: U-251; test: NCI screen, growth of human tumor cells: CNS Cancer U-251; conditions: U-251 (CNS Cancer), 10^−4 molar
Method in brief: as §1

[15] = tested on: LOXIMVI; test: NCI screen, growth of human tumor cells: Melanoma LOXIMVI; conditions: LOXIMVI (Melanoma), 10^−4 molar
Method in brief: as §1

[16] = tested on: M14; test: NCI screen, growth of human tumor cells: Melanoma M14; conditions: M14 (Melanoma), 10^−4 molar
Method in brief: as §1

[17] = tested on: SK-MEL-5; test: NCI screen, growth of human tumor cells: Melanoma SK-MEL-5; conditions: SK-MEL-5 (Melanoma), 10^−4 molar
Method in brief: as §1

[18] = tested on: UACC-257; test: NCI screen, growth of human tumor cells: Melanoma UACC-257; conditions: UACC-257 (Melanoma), 10^−4 molar
Method in brief: as §1

[19] = tested on: OVCAR-8; test: NCI screen, growth of human tumor cells: Ovarian Cancer OVCAR-8; conditions: OVCAR-8 (Ovarian Cancer), 10^−4 molar
Method in brief: as §1

[20] = tested on: 786-0; test: NCI screen, growth of human tumor cells: Renal Cancer 786-0; conditions: 786-0 (Renal Cancer), 10^−4 molar
Method in brief: as §1

[21] = tested on: SN12C; test: NCI screen, growth of human tumor cells: Renal Cancer SN12C; conditions: SN12C (Renal Cancer), 10^−4 molar
Method in brief: as §1

[22] = tested on: CAKI-1; test: NCI screen, growth of human tumor cells: Renal Cancer CAKI-1; conditions: CAKI-1 (Renal Cancer), 10^−4 molar
Method in brief: as §1

[23] = tested on: MCF 7; test: NCI screen, growth of human tumor cells: Breast Cancer MCF 7; conditions: MCF 7 (Breast Cancer), 10^−4 molar
Method in brief: as §1

[24] = tested on: MCF7/ADR-RES; test: NCI screen, growth of human tumor cells: Breast Cancer MCF7/ADR-RES; conditions: MCF7/ADR-RES (Breast Cancer), 10^−4 molar
Method in brief: as §1

[25] = tested on: MDA-MB-231/ATCC; test: NCI screen, growth of human tumor cells: Breast Cancer MDA-MB-231/ATCC; conditions: MDA-MB-231/ATCC (Breast Cancer), 10^−4 molar
Method in brief: as §1

[26] = tested on: MDA-MB-435; test: NCI screen, growth of human tumor cells: Breast Cancer MDA-MB-435; conditions: MDA-MB-435 (Breast Cancer), 10^−4 molar
Method in brief: as §1

[27] = tested on: MDA-N; test: NCI screen, growth of human tumor cells: Breast Cancer MDA-N; conditions: 10^−4 molar
Experimental: (§2) In the NCI screening process, each compound was tested and described by a minimum of 60 data points. The test data include, but are not limited to the type of cancer, the molar concentration used in the screen, and the percent growth of the cancer. In some cases, NMR and elemental analysis were used for structural assignment.

[28] = tested on: human cancer cells; test: NCI screen summary over the cancers tested (negative growth of human cancer cells); conditions: 10^−4 M conc.; cancers with negative growth / cancers tested
Experimental: as §2
The derivatives in the tables are grouped using the same category as in the tables 1-6.

[29] = tested on: RL; test: NCI screen, growth of human tumor cells: Lymphoma RL
[30] = tested on: KD488; test: NCI screen, growth of human tumor cells: Lymphoma KD488
[31] = tested on: AS283; test: NCI screen, growth of human tumor cells: Lymphoma AS283
[32] = tested on: SU-DAL-7; test: NCI screen, growth of human tumor cells: Lymphoma SU-DAL-7
[33] = tested on: PA682; test: NCI screen, growth of human tumor cells: Lymphoma PA682

Compound: O=S1(=O)OCCOS(=O)(=O)C1Cc1nc2ccccc2[nH]1 [NSC 679042, ethylene 2-benzimidazolyl-1,1-ethanedisulfonate]
- percent of growth of human tumor cells [1]: 15%
- percent of growth of human tumor cells [2]: 14%
- percent of growth of human tumor cells [3]: −3%
- percent of growth of human tumor cells [4]: −42%
- percent of growth of human tumor cells [5]: 12%
- percent of growth of human tumor cells [6]: 9%
- % Growth ([7]; HOP-18, 10^−4 molar): 18%
- % Growth ([7]; HOP-18, 10^−5 molar): 41%
- % Growth ([7]; HOP-18, 10^−6 molar): 29%
- % Growth ([7]; HOP-18, 10^−7 molar): 51%
- % Growth ([7]; HOP-18, 10^−8 molar): 58%
- % Growth ([8]; HOP-92, 10^−4 molar): 18%
- % Growth ([8]; HOP-92, 10^−5 molar): 41%
- % Growth ([8]; HOP-92, 10^−6 molar): 29%
- % Growth ([8]; HOP-92, 10^−7 molar): 51%
- % Growth ([8]; HOP-92, 10^−8 molar): 56%
- percent of growth of human tumor cells [9]: 14%
- percent of growth of human tumor cells [10]: 16%
- percent of growth of human tumor cells [11]: −31%
- percent of growth of human tumor cells [12]: 4%
- percent of growth of human tumor cells [13]: 0%
- percent of growth of human tumor cells [14]: 21%
- percent of growth of human tumor cells [15]: −50%
- percent of growth of human tumor cells [16]: 23%
- percent of growth of human tumor cells [17]: −28%
- percent of growth of human tumor cells [18]: 12%
- percent of growth of human tumor cells [19]: −33%
- percent of growth of human tumor cells [20]: 22%
- percent of growth of human tumor cells [21]: 8%
- percent of growth of human tumor cells [22]: −2%
- percent of growth of human tumor cells [23]: 6%
- percent of growth of human tumor cells [24]: 15%
- percent of growth of human tumor cells [25]: 30%
- percent of growth of human tumor cells [26]: 23%
- percent of growth of human tumor cells [27]: 3%
- Percentage of cancers showing negative growth cancers tested [28]: 10^−4 M conc. = 12/32 = 38%
- % Growth ([29]; 10^−4 molar): −45%
- % Growth ([29]; 10^−5 molar): 41%
- % Growth ([30]; KD488, 10^−4 molar): −39%
- % Growth ([30]; KD488, 10^−5 molar): 39%
- % Growth ([31]; AS283, 10^−4 molar): −25%
- % Growth ([31]; AS283, 10^−5 molar): 15%
- % Growth ([31]; AS283, 10^−6 molar): 58%
- % Growth ([31]; AS283, 10^−7 molar): 54%
- % Growth ([32]; SU-DAL-7, 10^−4 molar): −42%
- % Growth ([32]; SU-DAL-7, 10^−5 molar): 29%
- % Growth ([32]; SU-DAL-7, 10^−6 molar): 57%
- % Growth ([33]; PA682, 10^−4 molar): −34%
- % Growth ([33]; PA682, 10^−5 molar): 18%
